What is called Kd is the equilibrium constant for the complex coming apart. Low values mean higher affinity, high ones lower affinity.

Experimental findings from publication PMC6478789, “A chemical toolbox for the study of bromodomains and epigenetic signaling” (Nature Communications, 2019) are described below.

In one assay the target is PBRM1(5) (Homo sapiens, UniProt Q86U86). As to the kind of experiment: BROMOscan ligand-binding assay.
For another assay, the target named is BRD3(2) (Homo sapiens, UniProt Q15059). In words: BROMOscan ligand-binding assay. The conditions noted are these: KD, BROMOscan Gene Symbol BRD3(2).
Another assay addresses T1, BRPF3 (Homo sapiens, UniProt Q9ULD4).
T1 sequence (Q9ULD4 589-693 limits assumed): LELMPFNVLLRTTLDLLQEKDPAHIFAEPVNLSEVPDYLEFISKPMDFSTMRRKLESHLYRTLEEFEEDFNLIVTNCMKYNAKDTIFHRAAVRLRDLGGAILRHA
In words: BROMOscan ligand-binding assay. Conditions: KD, BRPF3.

The target in a further assay is BRPF1 (Homo sapiens, UniProt P55201). In words: Temperature shift assay (non-BRD reader domains). The class given is binding. The conditions noted are these: 10µM compound.
A further assay deals with T2, BAZ1B (Homo sapiens, UniProt Q9UIG0).
T2 sequence (Q9UIG0 1339-1443 limits assumed): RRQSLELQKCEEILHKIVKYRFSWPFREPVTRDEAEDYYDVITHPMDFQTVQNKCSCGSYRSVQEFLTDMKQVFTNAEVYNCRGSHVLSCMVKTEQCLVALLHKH
As to the kind of experiment: BROMOscan ligand-binding assay.

Another assay has as its target BRD2(2) (Homo sapiens, UniProt P25440). In words: BROMOscan ligand-binding assay.
For the next assay, the target named is BRDT(2) (Homo sapiens, UniProt Q58F21). In words: BROMOscan ligand-binding assay. The conditions noted are these: KD, BROMOscan Gene Symbol BRDT(2).
A further assay addresses T3, DYRK1A (Homo sapiens, UniProt Q13627).
T3 construct: Recombinant protein domains (bromodomain or kinases) at a concentration of 2 μM
In words: Temperature shift assay (protein kinases). The class given is binding. The conditions noted are these: 10 μM probe; average of three measurements. On the procedure: (§1) Temperature shift assays have been described by Fedorov et al.[46]. Recombinant protein domains (bromodomain or kinases) at a concentration of 2 μM in 10 mM HEPES, pH 7.5, and 500 mM NaCl were mixed with 10 μM of chemical probes. Temperature-dependent protein unfolding profiles were measured using a Real-Time PCR Mx3005p machine (Stratagene).

The target in another assay is T4, BRAF (Homo sapiens, UniProt P15056).
T4 construct: Recombinant protein domains (bromodomain or kinases) at a concentration of 2 μM
In words: Temperature shift assay (protein kinases). The class given is binding. The conditions noted are these: 10 μM probe; average of three measurements. How it is done: as §1

A further assay concerns the target T5, TTK (Homo sapiens, UniProt P33981).
T5 construct: Recombinant protein domains (bromodomain or kinases) at a concentration of 2 μM
T5 sequence (P33981 525-791 limits assumed): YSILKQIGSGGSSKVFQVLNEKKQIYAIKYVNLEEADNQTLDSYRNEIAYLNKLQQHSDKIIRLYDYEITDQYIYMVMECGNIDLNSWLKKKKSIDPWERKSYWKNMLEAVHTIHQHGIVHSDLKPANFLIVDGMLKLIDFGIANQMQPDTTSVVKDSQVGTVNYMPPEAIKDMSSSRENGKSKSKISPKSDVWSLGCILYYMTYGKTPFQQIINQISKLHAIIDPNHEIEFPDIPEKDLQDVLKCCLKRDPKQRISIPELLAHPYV
In words: Temperature shift assay (protein kinases). The class given is binding. The conditions noted are these: 10 μM probe; average of three measurements. How it is done: as §1

The target in another assay is T6, DAPK3 (Homo sapiens, UniProt O43293).
T6 construct: Recombinant protein domains (bromodomain or kinases) at a concentration of 2 μM
As to the kind of experiment: Temperature shift assay (protein kinases). The class given is binding. Conditions: 10 μM probe; average of three measurements. On the procedure:
as §1

The target in a further assay is T7, MERTK (Homo sapiens, UniProt Q12866).
T7 construct: Recombinant protein domains (bromodomain or kinases) at a concentration of 2 μM
T7 sequence (Q12866 587-858 limits assumed): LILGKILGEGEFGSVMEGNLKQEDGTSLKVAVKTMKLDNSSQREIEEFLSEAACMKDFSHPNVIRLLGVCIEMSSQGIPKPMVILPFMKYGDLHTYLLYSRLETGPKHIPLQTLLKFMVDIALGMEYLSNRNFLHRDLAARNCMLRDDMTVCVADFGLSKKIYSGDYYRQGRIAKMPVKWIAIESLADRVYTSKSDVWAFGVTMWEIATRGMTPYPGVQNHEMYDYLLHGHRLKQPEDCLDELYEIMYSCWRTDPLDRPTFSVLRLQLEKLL
As to the kind of experiment: Temperature shift assay (protein kinases). The class given is binding. Conditions: 10 μM probe; average of three measurements. How it is done: as §1

The target in the next assay is T8, PAK4 (Homo sapiens, UniProt O96013).
T8 construct: Recombinant protein domains (bromodomain or kinases) at a concentration of 2 μM
As to the kind of experiment: Temperature shift assay (protein kinases). Conditions: 10 μM probe; average of three measurements. The class given is binding. On the procedure:
as §1

A further assay has as its target T9, BMX (Homo sapiens, UniProt P51813).
T9 construct: Recombinant protein domains (bromodomain or kinases) at a concentration of 2 μM
In words: Temperature shift assay (protein kinases). The class given is binding. Conditions: 10 μM probe; average of three measurements. How it is done:
as §1

The target in the next assay is T10, FES (Homo sapiens, UniProt P07332).
T10 construct: Recombinant protein domains (bromodomain or kinases) at a concentration of 2 μM
In words: Temperature shift assay (protein kinases). The class given is binding. The conditions noted are these: 10 μM probe; average of three measurements. How it is done: as §1

The next assay concerns the target T11, STK10 (Homo sapiens, UniProt O94804).
T11 construct: Recombinant protein domains (bromodomain or kinases) at a concentration of 2 μM
As to the kind of experiment: Temperature shift assay (protein kinases). The conditions noted are these: 10 μM probe; average of three measurements. The class given is binding. On the procedure:
as §1

For the next assay, the system named is RPS6KA1. In words: Temperature shift assay (protein kinases). The conditions noted are these: 10 μM probe; average of three measurements. The class given is binding. How it is done: as §1
The next assay deals with T12, AAK1 (Homo sapiens, UniProt Q2M2I8).
T12 construct: Recombinant protein domains (bromodomain or kinases) at a concentration of 2 μM
In words: Temperature shift assay (protein kinases). The class given is binding. Conditions: 10 μM probe; average of three measurements. How it is done:
as §1

The target in a further assay is T13, STK3 (Homo sapiens, UniProt Q13188).
T13 construct: Recombinant protein domains (bromodomain or kinases) at a concentration of 2 μM
T13 sequence (Q13188 27-278 limits assumed): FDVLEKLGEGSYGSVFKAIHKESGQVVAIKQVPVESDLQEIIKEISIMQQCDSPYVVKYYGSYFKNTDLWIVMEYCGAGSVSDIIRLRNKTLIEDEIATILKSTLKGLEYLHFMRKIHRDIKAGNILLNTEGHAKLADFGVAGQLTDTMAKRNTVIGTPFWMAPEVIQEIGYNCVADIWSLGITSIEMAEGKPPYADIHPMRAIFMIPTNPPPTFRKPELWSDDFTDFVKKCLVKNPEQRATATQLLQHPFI
In words: Temperature shift assay (protein kinases). Conditions: 10 μM probe; average of three measurements. The class given is binding. On the procedure:
as §1

The target of the next assay is T14, TRIM24(PHD,BRD) (Homo sapiens, UniProt O15164).
T14 sequence (O15164 824-1006 limits assumed): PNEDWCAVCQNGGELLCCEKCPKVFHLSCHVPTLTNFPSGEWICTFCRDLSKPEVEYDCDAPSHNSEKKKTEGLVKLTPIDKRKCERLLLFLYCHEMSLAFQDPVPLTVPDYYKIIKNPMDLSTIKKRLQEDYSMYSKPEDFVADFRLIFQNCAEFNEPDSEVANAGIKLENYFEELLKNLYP
In words: BROMOscan ligand-binding assay. Conditions: KD, TRIM24(PHD,Bromo.).

[1] abbreviates: KD (BROMOscan), sheet prints no unit (nM).

PBRM1(5), sequence (Q86U86 653-763 limits assumed): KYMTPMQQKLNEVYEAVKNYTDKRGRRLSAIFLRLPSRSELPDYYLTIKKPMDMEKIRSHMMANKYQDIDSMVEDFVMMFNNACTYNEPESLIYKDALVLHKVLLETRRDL
T4 sequence (P15056 457-717 limits assumed, species assumed): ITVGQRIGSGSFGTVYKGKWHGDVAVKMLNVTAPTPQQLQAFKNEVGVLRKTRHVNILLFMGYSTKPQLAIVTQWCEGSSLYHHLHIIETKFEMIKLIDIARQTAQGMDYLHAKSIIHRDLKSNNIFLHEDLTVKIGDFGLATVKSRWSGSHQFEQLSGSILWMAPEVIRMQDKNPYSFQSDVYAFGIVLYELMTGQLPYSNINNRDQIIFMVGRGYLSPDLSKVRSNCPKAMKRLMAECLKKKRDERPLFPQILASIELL
BRPF1, sequence (P55201 1085-1168 limits assumed, species assumed): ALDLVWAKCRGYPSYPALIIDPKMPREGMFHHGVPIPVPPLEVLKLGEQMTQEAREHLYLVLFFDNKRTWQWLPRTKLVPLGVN
T10 sequence (P07332 561-822 limits assumed, species assumed): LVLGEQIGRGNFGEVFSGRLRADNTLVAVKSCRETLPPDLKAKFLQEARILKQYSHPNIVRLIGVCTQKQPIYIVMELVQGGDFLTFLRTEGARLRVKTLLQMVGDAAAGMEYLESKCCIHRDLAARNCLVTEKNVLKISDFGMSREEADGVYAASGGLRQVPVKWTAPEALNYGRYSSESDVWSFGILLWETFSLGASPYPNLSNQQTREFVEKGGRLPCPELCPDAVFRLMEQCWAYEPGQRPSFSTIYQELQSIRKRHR
T8 sequence (O96013 321-572 limits assumed, species assumed): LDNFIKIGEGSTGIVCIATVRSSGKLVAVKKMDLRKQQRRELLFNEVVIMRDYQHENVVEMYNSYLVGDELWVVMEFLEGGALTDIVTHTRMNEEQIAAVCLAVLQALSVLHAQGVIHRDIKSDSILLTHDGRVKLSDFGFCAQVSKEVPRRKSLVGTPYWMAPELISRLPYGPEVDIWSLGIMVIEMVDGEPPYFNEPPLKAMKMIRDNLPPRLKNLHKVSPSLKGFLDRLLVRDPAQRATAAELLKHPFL
BRD3(2), sequence (Q15059 306-415 limits assumed): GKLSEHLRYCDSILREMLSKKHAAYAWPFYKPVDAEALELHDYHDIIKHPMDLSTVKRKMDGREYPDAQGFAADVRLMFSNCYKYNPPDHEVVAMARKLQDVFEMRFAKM
T6 sequence (O43293 13-275 limits assumed, species assumed): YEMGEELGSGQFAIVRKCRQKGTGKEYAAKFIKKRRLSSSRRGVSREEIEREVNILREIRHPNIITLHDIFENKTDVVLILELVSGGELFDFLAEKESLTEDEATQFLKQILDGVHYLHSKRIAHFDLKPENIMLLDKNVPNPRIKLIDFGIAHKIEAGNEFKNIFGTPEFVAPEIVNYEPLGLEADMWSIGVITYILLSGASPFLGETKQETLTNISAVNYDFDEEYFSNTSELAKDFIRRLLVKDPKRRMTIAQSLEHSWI
T12 sequence (Q2M2I8 46-315 limits assumed, species assumed): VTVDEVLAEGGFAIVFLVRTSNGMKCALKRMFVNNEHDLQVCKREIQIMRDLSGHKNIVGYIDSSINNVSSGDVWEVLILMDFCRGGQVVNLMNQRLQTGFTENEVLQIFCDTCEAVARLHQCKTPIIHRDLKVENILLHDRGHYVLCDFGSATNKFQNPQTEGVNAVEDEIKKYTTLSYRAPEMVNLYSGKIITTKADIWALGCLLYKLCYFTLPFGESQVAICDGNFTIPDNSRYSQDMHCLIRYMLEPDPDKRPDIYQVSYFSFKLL
T11 sequence (O94804 36-294 limits assumed, species assumed): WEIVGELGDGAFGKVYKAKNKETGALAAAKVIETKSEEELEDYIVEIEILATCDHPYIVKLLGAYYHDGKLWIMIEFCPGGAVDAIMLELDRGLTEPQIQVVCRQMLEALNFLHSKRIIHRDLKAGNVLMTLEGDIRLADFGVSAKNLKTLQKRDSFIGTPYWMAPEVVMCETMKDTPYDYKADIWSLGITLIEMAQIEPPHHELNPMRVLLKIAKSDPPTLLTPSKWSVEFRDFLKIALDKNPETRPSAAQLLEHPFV
T9 sequence (P51813 417-675 limits assumed, species assumed): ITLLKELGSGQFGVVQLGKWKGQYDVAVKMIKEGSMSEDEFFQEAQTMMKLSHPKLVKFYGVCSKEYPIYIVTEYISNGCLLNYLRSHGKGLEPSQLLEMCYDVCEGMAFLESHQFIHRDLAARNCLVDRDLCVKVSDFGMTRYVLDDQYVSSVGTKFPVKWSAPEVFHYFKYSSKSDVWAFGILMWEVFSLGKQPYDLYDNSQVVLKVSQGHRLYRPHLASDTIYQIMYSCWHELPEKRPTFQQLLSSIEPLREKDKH
BRD2(2), sequence (P25440 344-453 limits assumed): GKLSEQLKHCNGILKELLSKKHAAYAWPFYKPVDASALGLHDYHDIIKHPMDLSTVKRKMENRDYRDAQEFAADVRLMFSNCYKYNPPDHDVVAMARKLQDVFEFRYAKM
From the text for BAZ1B: (§2) BROMOscan is a binding assay based on the well-known KINOMEscan technology. This assay measures the binding of a DNA-tagged bromodomain to an immobilized BRD ligand. If an inhibitor is present, it will compete with the bromodomain binding to the immobilized ligand, resulting in reduction of a quantitative PCR (qPCR) signal in a dose-dependent manner.
From the text for BRD2(2): as §2
From the text for BRD3(2): as §2
From the text for BRDT(2): as §2
From the text for BRPF3: as §2
From the text for PBRM1(5): as §2
From the text for TRIM24(PHD,BRD): as §2

Consider `CCC(=O)N1CCOc2c(cc(-c3ccc(OC)c(OC)c3)cc2OCC2CCCN(C)C2)C1` (stereo not shown) [I-CBP112], for which the Kd on PBRM1(5) (setting [1]) was over 30000 nM; at PBRM1(5) (KD, PBRM1(5)), over 100000 nM; on BRD3(2) it was 20 µM; at BRPF3, 95 µM; on BAZ1B (setting [1]) it was over 30000 nM; at BAZ1B (KD, BROMOscan Gene Symbol BAZ1B), over 100000 nM. The Kd at BRD2(2) was 26 µM; at BRDT(2), 49 µM; at TRIM24(PHD,BRD) it was 14 µM. In addition, on BRPF1, the “Tm (C) 10µM, temperature shift” value is reported as -0.2 Kelvin. Further, the Temperature shift on DYRK1A is on record as -0.4 Kelvin; on BRAF, -0.1 Kelvin; at TTK, 0.0 Kelvin; on DAPK3, 0.0 Kelvin; on MERTK, -0.2 Kelvin; at PAK4 it was -0.2 Kelvin. Moreover, the Temperature shift on BMX was -0.1 Kelvin; on FES, -0.1 Kelvin; on STK10, -0.4 Kelvin; in the assay on RPS6KA1 it was 0.1 Kelvin; on AAK1, -0.7 Kelvin; on STK3, 0.0 Kelvin.
